Data on 2 compounds can be found in article PMC7266154 (RNA, 2020).

The structures appear in SMILES notation.

The test system of the test is protein synthesis in E. coli S30 extract. It counts as biochemical, Escherichia coli. The following applies: read-out: IC50, inhibition of firefly luciferase synthesis, 37°C, 30 min, luciferase activity, three independent measurements.

What is called IC50 is the concentration at which inhibition is half-maximal. Regarding `CC[C@H]1OC(=O)[C@H](C)[C@@H](O[C@H]2C[C@@](C)(OC)[C@@H](O)[C@H](C)O2)[C@H](C)[C@@H](O[C@@H]2O[C@H](C)C[C@H](N(C)C)[C@H]2O)[C@](C)(O)C[C@@H](C)[C@@H]2N[C@@H](COCCOC)O[C@H]([C@H]2C)[C@]1(C)O` [DIR, dirithromycin], the IC50 stood at 190 ± 20 nM.
Then `CC[C@H]1OC(=O)[C@H](C)[C@@H](O[C@H]2C[C@@](C)(OC)[C@@H](O)[C@H](C)O2)[C@H](C)[C@@H](O[C@@H]2O[C@H](C)C[C@H](N(C)C)[C@H]2O)[C@](C)(O)C[C@@H](C)C(=O)[C@H](C)[C@@H](O)[C@]1(C)O` [ERY, erythromycin], with 320 ± 20 nM.
